According to paper PMC10283009, “Cellular photo(geno)toxicity of gefitinib after biotransformation” (Frontiers in Pharmacology, 2023):
Entries after “also recorded” stand apart in the source; their conditions may differ. Where a name gives a salt, the structure may show the parent alone. Read-outs that look alike come from different tables or passages of the source.

Tests used:
HaCaT cells [1] = experiment: cells; conditions: for Phototoxicity classification according to OECD 432 Guide: PIF <2 no phototoxicity, 2-5 probable phototoxicity, >5 phototoxicity, HaCaT NRU
Protocol: Chlorpromazine (CPZ) and sodium dodecyl sulfate (SDS) served as the positive phototoxic and negative non-phototoxic controls, respectively. […] Therefore, the phototoxicity behavior of the metabolites was studied in parallel with the parent drug.
Concisely, for each compound, two 96-well plates were seeded at a density of 2.0 × 10^4 cells/well. […] All plates were incubated for 1 h in dark conditions. Then, for each sample, in the presence of ice, one plate was irradiated with a non-cytotoxic dose of 5 J/cm^2 UVA (UVA Light), whereas the other was kept in a dark box (Dark). Next, drug solutions were replaced with fresh DMEM medium, and plates were further incubated overnight. Next day, neutral red solution (50 μg/mL) was added into the wells and incubated for 2 h at 37°C. […] Lastly, the absorbance of the plates was read at 550 nm on a Synergy H1 microplate reader. […] Afterwards, photoirritation factor (PIF) values were calculated using the following equation: PIF=IC50 Dark / IC50 UVA Light

[2] = Singlet oxygen production by time-resolved NIR emission at 1,270 nm; assay type: physicochemical
[3] = molecular target: T1, human serum albumin (HSA) (Homo sapiens, UniProt P02768); design: purchased Sigma-Aldrich (Madrid, Spain); method as in Tamarit et al., 2021; conditions: GFT 100 µM, HSA 5 mg/mL in PBS, UVA 15 J/cm^2; carbonyl content value of GFT taken from the literature; ref Tamarit et al., 2021; cited from earlier work
HaCaT cells [4] = experiment: Lactate dehydrogenase release assay (CytoTox-ONE); assay type: cell-based, human; conditions: after UVA 5 J/cm^2, concentration near the IC50
Protocol: Lactate Dehydrogenase activity assay was performed according to the manufacturer´s protocol. Briefly, HaCaT cells were seeded in 96-well plates (2 × 10^5 cell/mL) and incubated for 24 h. Then, after replacement of the medium with fresh no-phenol red DMEM, cells were incubated for 1 h with the compounds in two different concentrations representing 100% and 50% of cell viability according to NRU dose-response curves. Next, one plate was irradiated with UVA light (5 J/cm^2) while the other one was kept in dark conditions. Next day, samples were analyzed by CytoTox-ONE™ Homogeneous Membrane Integrity Assay and a lysis solution (9% weight/volume solution of Triton X-100 in water) was used to determine the maximum amount of LDH present. The fluorescence was measured 10 min after the addition of the substrate using Synergy H1 multi-mode microplate reader (excitation at 560 nm and emission at 590 nm). The percent of LDH release was determined following the following equation: % LDH release=Experimental LDH release/Maximum LDH release x 100

HaCaT cells [5] = experiment: Alkaline comet assay (nuclear DNA damage and repair); assay type: cell-based; conditions: 100 µM
Protocol: The comet assay (single-cell gel electrophoresis) was performed as already detailed in [Garcia-Lainez et al. (2018)] in order to detect both single and double strand breaks and alkaline labile sites on nuclear DNA. […] The reference photogenotoxic control of this assay was CPZ (10 μM). Afterwards, one plate was irradiated under 2 J/cm^2 UVA light dose (4 J/cm^2 for DMT-GFT and DMOR-GFT) while the other one was kept in darkness as the negative control. Later, both irradiated and non-irradiated cells were detached from the plates and 100 µL of cell suspension was mixed with 100 µL 1% low melting point agarose solution and loaded onto FLARE® slides. Then, slides were incubated on ice to allow drop jellification. Finally, slides were embedded in a box with lysis buffer to initiate the lysis of cells and incubated overnight at 4°C. Next day, slides were placed in electrophoresis tank filled with 1 L of cold alkaline electrophoresis buffer (0.2 M NaOH, 1 mM EDTA in distilled water and pH ≥ 13). The electrophoresis was run at 21 V (1 V/cm) for 30 min and kept at 4°C. Then, slides were washed twice with MilliQ water and DNA fixation accomplished by a serial dehydration with 70% ethanol and 100% ethanol solutions during 5 min and followed by drying for 2 h at 37°C. Nuclear DNA was stained with a SYBR Gold® bath (1:10,000 in Tris-EDTA buffer) for 30 min at 4°C and slides were kept in darkness until its visualization. Comets (nucleoids and tails) were visualized using a fluorescence microscope (Leica DMI 4000B). DNA damage was quantified by counting and analyzing at least 100 DNA comets. Finally, total comet score (TCS) was obtained with the classification of six DNA damage types ([Møller, 2006]) applying the formula: Cl. 0×0+Cl. 1×1+Cl. 2×2+Cl. 3×3+[Cl. 4×4+Cl. 5×5+Cl. 6×6]/6
Where Cl. is the class of DNA damage according to the visual scoring.
The results are expressed in 1–100 arbitrary units, where class 0 comets are comets with no DNA damage while class 6 comets represent comets with maximum DNA damage. Two-way ANOVA (Analysis of Variance) method was used for the statistical analysis of the data.

[6] = Fluorescence quantum yield of compounds internalized in HaCaT cells; assay type: physicochemical; conditions: inside HaCaT cells, excitation at 320 nm, anthracene as standard
Protocol: (§1) Absorption spectra were recorded in a JASCO V-760 spectrophotometer using 10 × 10 mm^2 quartz cuvettes at room temperature. […] Fluorescence spectra (λ exc = 320 nm) were recorded using a Synergy H1 multi-mode microplate reader.
In parallel, fluorescence quantum yield (ΦF) of the internalized compounds were also determined, by comparison with anthracene as standard (Φ F = 0.27 in ethanol). […]

[7] = Fluorescence emission spectra in different media; assay type: physicochemical; design: unit not given here; conditions: excitation at 320 nm
Protocol: as §1

[8] = test system: caspase-3/7 activity in HaCaT cells; experiment: Caspase 3/7 activity assay (Apo-ONE); assay type: cell-based, human; conditions: after UVA 5 J/cm^2, two concentrations up to about the IC50 under UVA
Protocol: HaCaT cells were seeded in 96-well plates at a concentration of 2 × 10^5 cell/mL. The next day, cells, in fresh DMEM medium without phenol red, were treated with the compounds at two different concentrations representing 100% and 50% of cell viability according to NRU dose-response curves. After 1 h incubation at 37°C, one plate was irradiated with UVA light (5 J/cm^2) and the other one was kept in dark conditions. Later, plates were incubated for another 24 h at 37°C with fresh DMEM medium. Then, samples were analyzed by the Apo-ONE Homogeneous Caspase-3/7 assay according to the manufacturer’s instructions. Immediately after, the fluorescence was monitored at 0 h and 4 h after the addition of the substrate using Synergy H1 multi-mode microplate reader (excitation at 499 nm and emission at 521 nm). The data was subjected to statistical analysis using the Two-way ANOVA (Analysis of Variance).

[9] = molecular target: T1, human serum albumin (HSA); experiment: Photoinduced protein oxidation assay (carbonyl content, DNPH derivatization); conditions: compound 100 µM, HSA 5 mg/mL in PBS, UVA 15 J/cm^2
[10] = Photosensitized lipid peroxidation (TBARS assay); conditions: compound 100 µM, linoleic acid 1 mM in PBS, UVA 15 J/cm^2 vs dark
[11] = design: method as in PMID 30069771; conditions: standard, in ethanol; ref [26]; cited from earlier work
[12] = Triplet excited-state quenching by DMBA (laser flash photolysis); assay type: physicochemical; conditions: deaerated acetonitrile, 355 nm laser excitation, DMBA 0.1-10 mM
Protocol: A pulsed Nd:YAG L52137 V LOTIS TII laser (Sp Lotis Tii, Minsk, Belarus) was used for the excitation at 355 nm. The single pulses were ∼10 ns of duration, and the energy was ∼12 mJ/pulse. Laser flash photolysis (LFP) equipment consisted of a pulsed laser, a 77250 Oriel monochromator, and an oscilloscope DP04054 Tektronix. The output signal from the oscilloscope was transferred to a personal computer for processing. The DMOR-GFT metabolite was dissolved in acetonitrile up to an absorbance of 0.3 at 355 nm. Solutions were deaerated by bubbling nitrogen through the solution during 15 min. The rate constant of triplet excited-state quenching by 1,4-dihydro-1,2-dimethylbenzoic acid (DMBA) was determined using the Stern–Volmer Equation: 1/τ=1/τq+kq DMBA
Where τ and τ q are the lifetime of transient species in the presence and absence of DMBA, respectively. Concentrations between 0.1 and 10 mM were used for DMBA. This compound was prepared through Birch reduction following standard procedures ([Andreu et al., 2011]).

[13] = Homo sapiens, HaCaT, 1 h, read-out: IC50 dark
[14] = Homo sapiens, HaCaT, light or radiation study, 1 h, read-out: IC50 UVA light
[15] = PIF = IC50 Dark / IC50 UVA Light, HaCaT, UVA 5 J/cm^2
[16] = in presence of calf thymus DNA (ctDNA)
[17] = in presence of methyl linoleate (ML)

T1 sequence (P02768 25-609): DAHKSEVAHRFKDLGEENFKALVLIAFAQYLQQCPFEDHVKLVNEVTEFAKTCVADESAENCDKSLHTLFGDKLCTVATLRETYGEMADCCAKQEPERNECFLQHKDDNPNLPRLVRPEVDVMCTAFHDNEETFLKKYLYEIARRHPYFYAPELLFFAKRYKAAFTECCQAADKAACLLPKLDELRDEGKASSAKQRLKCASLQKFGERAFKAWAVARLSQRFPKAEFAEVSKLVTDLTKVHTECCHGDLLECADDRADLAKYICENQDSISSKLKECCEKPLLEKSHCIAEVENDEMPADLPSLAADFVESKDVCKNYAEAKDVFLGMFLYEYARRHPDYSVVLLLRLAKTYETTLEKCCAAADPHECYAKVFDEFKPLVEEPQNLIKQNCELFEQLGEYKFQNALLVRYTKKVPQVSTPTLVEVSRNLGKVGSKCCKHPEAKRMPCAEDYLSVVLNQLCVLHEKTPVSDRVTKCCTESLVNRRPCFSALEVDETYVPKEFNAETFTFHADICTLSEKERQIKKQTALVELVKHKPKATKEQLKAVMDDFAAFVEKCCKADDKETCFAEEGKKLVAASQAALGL

SMILES: CN(C)CCCN1c2ccccc2Sc2ccc(Cl)cc21 [CPZ, Chlorpromazine hydrochloride, reference compound]
- IC50 (HaCaT cells [1]; [13]): 80 ± 17 µM
- IC50 (HaCaT cells [1]; [14]): 4 ± 0.9 µM
- Photoirritant factor (PIF) (HaCaT cells [1]; [15]): 20

SMILES: COc1cc2ncnc(Nc3ccc(O)c(Cl)c3)c2cc1OCCCN1CCOCC1 [DF-GFT, 4-Defluoro-4-hydroxy gefitinib]
- IC50 (HaCaT cells [1]; [13]): 1020 µM
- IC50 (HaCaT cells [1]; [14]): 1100 µM
- Phototoxicity classification according to OECD 432 Guide (HaCaT cells [1]): non-phototoxic; also recorded: negligible phototoxic activity
- Photoirritant factor (PIF) (HaCaT cells [1]; [15]): ~1

SMILES: COc1cc2ncnc(Nc3ccc(F)c(Cl)c3)c2cc1OCCCN1CCOCC1 [GFT, Gefitinib hydrochloride, reference compound]
- Singlet oxygen quantum yield (Φ Δ) [2]: ≤ 0.1
- Protein photooxidation (carbonyl content of HSA) [3]: significant oxidative effect towards HSA
- LDH release (HaCaT cells [4]): small but significant percent of LDH-release
- Percentage of DNA damage (comet assay) (HaCaT cells [5]; UVA light 5 min (2 J/cm^2)): around 72%
- Fluorescence quantum yield (ΦF) [6]: 0.07

SMILES: Oc1cc2ncnc(Nc3ccc(F)c(Cl)c3)c2cc1OCCCN1CCOCC1 [DMT-GFT, O-Demethyl gefitinib]
- Emission (λmax) [7, 16]: 450
- Emission (λmax) [7, 17]: 384
- IC50 (HaCaT cells [1]; [13]): 34 ± 3 µM
- IC50 (HaCaT cells [1]; [14]): 5 ± 0.1 µM
- Phototoxicity classification according to OECD 432 Guide (HaCaT cells [1]): can still be considered phototoxic
- Photoirritant factor (PIF) (HaCaT cells [1]; [15]): 7
- Caspase-3/7 activity (relative change) [8]: caspase-3/7 activity was similar between the concentration of 2.5 µM and the concentration corresponding to IC50
- Protein photooxidation (carbonyl content of HSA) [9]: did not exhibit any lipid or protein oxidative damage
- Photosensitized lipid peroxidation (TBARS content) [10]: neither GFT nor DMT-GFT showed detectable changes
- LDH release (HaCaT cells [4]): did not show any effect on the LDH release
- Percentage of DNA damage (comet assay) (HaCaT cells [5]; UVA light 10 min (4 J/cm^2)): around 54%
- Fluorescence quantum yield (ΦF) [6]: 0.04

SMILES: CCCCCCCCCCCCOS(=O)(=O)[O-].[Na+] [SDS, sodium dodecyl sulfate, reference compound]
- Photoirritant factor (PIF) (HaCaT cells [1]): 1
- IC50 (HaCaT cells [1]; read-out: IC50 UVA light, HaCaT, neutral red uptake, UVA 5 J/cm^2, 1 h incubation with compound): 136 ± 23 µM
- IC50 (HaCaT cells [1]; read-out: IC50 dark, HaCaT, neutral red uptake, kept in dark, 1 h incubation with compound): 133 ± 31 µM

SMILES: c1ccc2cc3ccccc3cc2c1 [anthracene]
- Fluorescence quantum yield (ΦF) [11]: 0.27

SMILES: COc1cc2ncnc(Nc3ccc(F)c(Cl)c3)c2cc1O [DMOR-GFT, O-Demorpholinopropyl gefitinib]
- Emission (λmax) ([7]; in presence of HSA): 432
- Emission (λmax) [7, 16]: 448
- Emission (λmax) [7, 17]: 384
- IC50 (HaCaT cells [1]; [13]): 144 ± 6 µM
- IC50 (HaCaT cells [1]; [14]): 3 ± 0.6 µM
- Photoirritant factor (PIF) (HaCaT cells [1]; [15]): 48
- Singlet oxygen quantum yield (Φ Δ) [2]: ≤ 0.1
- Caspase-3/7 activity (relative change) [8]: concentration dependent activation of caspase-3/7
- Protein photooxidation (carbonyl content of HSA) [9]: significant oxidative effect towards HSA
- Photosensitized lipid peroxidation (TBARS content) [10]: remarkable enhancement in photosensitized lipid peroxidation comparable to the reference
- Percentage of DNA damage (comet assay) (HaCaT cells [5]; UVA light 5 min (2 J/cm^2)): did not promote DNA damage
- Percentage of DNA damage (comet assay) (HaCaT cells [5]; UVA light 10 min (4 J/cm^2)): around 45%
- Rate constant (kq) of triplet excited state quenching by DMBA [12]: 1.96 M^−1·s^−1 × 10^9 M^−1·s^−1
- Fluorescence quantum yield (ΦF) [6]: 0.1
